Measurements taken from patent US7704987B1, “β-amyloid peptide inhibitors” (Prana Biotechnology Ltd, priority 1999, dated 2010).

How the values were obtained:
[1] = tested on: cerebral cortical neuron cultures; experiment: LDH assay for cell death: inhibition of Aβ1-42 neurotoxicity in vitro; format: cell-based; settings: treatment alone; LDH release compared to untreated control cultures; 5 days; KJB030 dialysed, at most 20 μM; Aβ1-42 20 μM
Method: Compound KJB030 was dissolved in chelex 100-treated double distilled H2O (CH100-dH2O) at a concentration of 200 μM. Aβ1-42 was dissolved in either 200 μm KJB030 solution or in CH100-dH2O. Both solutions contained 200 μM Aβ1-42. The Aβ1-42 solutions were incubated at ambient temperature (˜20-24° C.) for 3 days. The solutions were then brought to a physiological state by adding 10× phosphate buffered saline (PBS), pH 7.4, thus bringing samples to 1×PBS. Samples were then incubated at 37° C. for 24 hr to induce aggregation of Aβ1-42. Samples were subsequently dialysed in microdialysis cups (3500 Mr cut-off) placed in 5 L PBS for 24 hr, in order to remove some of the excess KJB030 without loss of Aβ1-42.
Dialyzed samples were added to six day old cerebral cortical neuron cultures growing in Neurobasal medium with B27 supplements but without anti-oxidants (Gibco). Samples were diluted into the culture medium to a final concentration of 20 μM Aβ1-42. […]
Determination of cell death was performed using the lactate dehydrogenase (LDH) assay kit (Boehringer Mannheim). […] Culture medium was mixed with the reagents from the LDH kit as per the manufacturer's instructions and the level of LDH measured colourimetrically on a spectrophotometric 96 well plate reader at 490 nm.

[2] = tested on: Aβ deposited in the brains of Alzheimer's disease patients; experiment: Brain tissue assay: solubilisation of Aβ deposits from post-mortem AD brain (Western blot); set-up: species or system human; settings: post-mortem brain homogenate in PBS, 24 h at room temperature, Western blot (FIG. 7); compound concentrations as in Table 1
Aβ1-28 = target: T1, Aβ1-28 (Homo sapiens, UniProt P05067); experiment: 1H NMR reaction of compound with Aβ1-28; format: binding; settings: ~1 equivalent, 24 hrs in DMSO; 600 MHz 1H NMR, pH 6.9, 271 K
T1 construct: adding two equivalents of Cu^2+ to Aβ1-28
Method: 1.8 mgs of Aβ1-28 was dissolved in 5 mls DMSO was mixed with 0.33 mgs of compound KJB001 (˜1 equivalent) dissolved in 0.3 mls DMSO. The mixture was allowed to stand for 24 hrs before being freeze-dried. The resulting blue powder was dissolved in 550 μl of an aqueous solution containing 100 mM NaCl, 50 mM phosphate buffer, pH 6.9. A solution of 1.8 mgs Aβ1-28 dissolved in 550 μl of the same solution was used as a control.

T1 sequence (P05067 672-699): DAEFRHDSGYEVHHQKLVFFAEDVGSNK

Row | reaction with His6, His13, His14 of Aβ1-28 (shift of histidine C2H peaks) (Aβ1-28) | Compound | % cell death [1] [%] | ability to solubilise Aβ deposited in the brains of Alzheimer's disease patients [2]
1 |  | Aβ1-42: β-amyloid peptide 1-42, the neurotoxic agent in the LDH assay | 22 ± 3.5 | 
2 |  | [Mn+2].c1ccc2c(c1)-c1nc3nc(nc4[n-]c(nc5[n-]c(nc-2n1)c1ccccc51)c1ccccc41)-c1ccccc1-3 [KJB006, Manganese(II) phthalocyanine] |  | good activity
3 |  | C1=Cc2nc1c(-c1ccccc1)c1ccc([nH]1)c(-c1ccccc1)c1nc(c(-c3ccccc3)c3ccc([nH]3)c2-c2ccccc2)C=C1.[Cl-].[Cl-].[Cl-].[Mn+3] [KJB007, 5,10,15,20-tetraphenyl-21H,23H-porphine manganese(III) chloride] |  | good activity
4 |  | CC(C)(C)c1cc(C=N[C@H]2CCCC[C@@H]2N=Cc2cc(C(C)(C)C)cc(C(C)(C)C)c2[O-])c([O-])c(C(C)(C)C)c1.[Cl-].[Mn+3] [KJB002, (S,S)-(+)-N-N′-bis(3,5-di-tert-butylsalicylidene)-1-2-cyclohexane diamino manganese(III) chloride] |  | good activity
5 | had reacted with these residues | [Co+2].c1ccc2c(c1)-c1nc-2nc2[n-]c(nc3nc(nc4[n-]c(n1)c1ccccc41)-c1ccccc1-3)c1ccccc21 [KJB001, Co(II) phthalocyanine β-form] |  | particularly strong solubilising activity
